Patent US8247211B2, “Glycopeptide antibiotics” (American Cyanamid Company, priority 2001, dated 2012)
Values after ≈ are worked out from the molar mass of the structure shown.

How the values were obtained:
Escherichia coli = assay: In vitro antibacterial evaluation: minimum inhibitory concentration (MIC), broth dilution method; format: cell-based; details: strain GC 4560
Procedure, shortened: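 Broth dilution per NCCLS M7-A2 in Muller-Hinton II […], inoculum 5×10^5 CFU/mL, antibiotic tested over 64-0.06 μg/mL. MIC is taken as the lowest concentration that inhibits growth. Panel includes recent clinical isolates resistant to methicillin, penicillin and/or vancomycin.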

Enterococcus sp. = assay: as above; format: cell-based; details: strain GC 4557
Procedure, shortened: (§1)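 Following NCCLS approved standard M7-A2, compounds are serially diluted from 64 to 0.06 μg/mL in Muller-Hinton II […] and inoculated at 5×10^5 CFU/mL; the MIC is the minimum concentration at which growth is inhibited.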

Streptococcus sp. = assay: as above; format: cell-based
Procedure, shortened: as §1

[1] = test system: Staphylococcus aureus-SMITH (GC 4543); assay: Acute lethal infection in mice (ED50); format: in vivo; details: female CD-1 mice, intraperitoneal challenge, intravenous dose 30 min. after infection, 7 day survival ratios
Experimental: The therapeutic effects of glycopeptide antibiotics of Formula I are determined against acute lethal infections with S. aureus (strain Smith), a penicillin resistant strain of S. pneumoniae (strain GC 1894), and a vancomycin resistant strain of E. fecalis (strain GC 6189 and GC 2246). Female mice, CD-1 (Charles River Laboratories), 20 +1-2 gm, are challenged by intraperitoneal injection of sufficient bacteria (suspended in Trypticase Soy Broth or hog gastric mucin) to kill non-treated controls within 24-48 hr. Antibacterial agents, contained in 0.2 mL of saline or 5% dextrose solution, are administered intravenously 30 min. after infection. Five mice are treated at each dose level. The 7 day survival ratios from 3 separate tests are pooled for calculation of median effective dose (ED50).

Question: `CC(c1ccccc1)C1NC(=O)CNC(=O)C(CO)NC(=O)C(C(O)C2CN(Cc3ccccc3)C(=NCc3ccccc3)N2C2OC(CO)C(O)C(O)C2O)NC(=O)C(C(O)C2CN(Cc3ccccc3)C(=NCc3ccccc3)N2Cc2ccccc2)NC(=O)C(Cc2ccc(OC3OC(CO)C(OC4OC(CO)C(O)C(O)C4O)C(O)C3O)cc2)NC1=O` (stereo not drawn) [Example 62, Cyclo[glycyl-β-methylphenylalanyl-O-(4-O-hexopyranosylhexopyranosyl)tyrosyl-3-[1,3-dibenzyl-2-(benzylimino)imidazolidin-4-yl]seryl-3-[1-benzyl-2-(benzylimino)-3-hexopyranosylimidazolidin-4-yl]serylseryl]] was tested. Which “MIC Escherichia coli (GC 4560)” value (Escherichia coli) did it give?
Answer: The value was 4 µg/mL (≈ 2.29 µM).

Question: And the “MIC Enterococcus faecium (GC 4557)” value (Enterococcus sp.)?
Answer: Its value is 64 µg/mL (≈ 36.7 µM).

Question: What about the “MIC Streptococcus pneumoniae (GC 1894)” value (Streptococcus sp.; Streptococcus pneumoniae (GC 1894), broth dilution, 18 hours at 35° C.) of the same molecule?
Answer: Its value is 64 µg/mL (≈ 36.7 µM).

Question: What about the “MIC Streptococcus pneumoniae (GC 1894)” value (Streptococcus sp.; strain GC 1894) of the same molecule?
Answer: The value was 64 µg/mL (≈ 36.7 µM).

Question: What about the “median effective dose (ED50), Staphylococcus aureus-SMITH (GC 4543)” value [1] of the same molecule?
Answer: Its value is greater than 8.
